Structures can show the parent of a compound that is named as a salt.
Columns and labels:
[1] = test system: silica-induced pulmonary fibrosis; assay: Efficacy in a mouse model of silica-induced pulmonary fibrosis; format: in vivo, C57BL/6 mice; settings: for Hydroxyproline content: lungs isolated 16 days after silica, Mean ± SE
Procedure: Using C57BL/6 mice (8 weeks old, male gender), the neck was incised under pentobarbital anesthesia and silica (2 mg/0.1 ml/animal) was administered intra-tracheally. A sham operated intact group received physiological saline in the same manner. The drug was orally administered daily beginning the day of silica treatment till the day immediately preceding sacrifice. Thus, test compound 1 and tranilast were respectively administered once after silica treatment and twice daily on the next and subsequent days, in morning and evening. In the sham operated and control groups, 0.5% methylcellulose was similarly administered. Sixteen (16) days after sensitization, the mice were bled to death under pentobarbital anesthesia and the lungs were isolated. The hydroxyproline content of the isolated lungs was assayed and used as an indicator of pulmonary fibrosis. The difference in mean value between the control group and the treatment group or the sham operated group was tested by one-way analysis of variance and Dunnett multiple-comparison test.

[2] = test system: bleomycin-induced pulmonary fibrosis; assay: Efficacy in a mouse model of bleomycin-induced pulmonary fibrosis; format: in vivo, ICR mice; settings: 1 mg/kg orally twice a day, day 28
Procedure: ICR mice (12 weeks old, male gender) were intravenously dosed with bleomycin (10 mg/kg) daily for 10 days. Test compound 1 was suspended in 0.5% methylcellulose solution and administered orally twice a day beginning the first day of bleomycin treatment till the day immediately preceding sacrifice. A control group received 0.5% methylcellulose solution in the like manner. Twenty-eight (28) days reckoning from administration of the initial dose of bleomycin, the mice were sacrificed, the lungs were isolated, and the lung hydroxyproline content was determined in accordance with Woessner's method. Histopathological specimens were also prepared at the same time and the degree of fibrotic change was evaluated after Azan-Mallory staining.

[3] = Oral acute toxicity in rats; format: in vivo
[4] = test system: acetic acid-induced colitis; assay: Efficacy in a rat model of acetic acid-induced colitis; format: in vivo, SD rats; settings: po, inhibition of lesion score, read-out: Degree of inhibition
Procedure: Male SD rats (7-8 weeks old) were deprived of food for 24 hours and a suspension of test compound 2 in 0.5% methylcellulose solution was administered orally. Thirty (30) minutes later, 1 ml/rat of 4% acetic acid in saline was infused from the anus under ether anesthesia. An intact group received a saline infusion. The infusion was carried out over 20 seconds. Then, the animal was held in inverted upright position for 30 seconds, after which 2 ml of phosphate buffer solution was infused for washout. Twenty-four (24) hours later, the animal was sacrificed by carbon dioxide inhalation, the large intestine was isolated, and the local lesion was scored according to the following criteria. Lesion score 0. No lesion 1. Hyperemia without ulceration 2. Inflammation (hyperemia and thickening of the bowel wall) or ulceration without definite inflammation 3. Ulceration with inflammation at 1 site 4. Ulceration with inflammation at 2 or more sites 5. A large ulcer sized 1 cm or more 6-10. An ulcer sized 2 cm or more; 1 point added for each increment of 1 cm

Compound: O=C(Nc1nnn[nH]1)c1cc(Oc2ccccc2)c2ccccn2c1=O [Test compound 1, N-[5-(1H-tetrazolyl)]-1-phenoxy-4H-quinolizin-4-one-3-carboxamide sodium salt]
- Hydroxyproline content ([1]; 1 mg/kg orally twice daily, n=10): **144.41±9.69 µg/lung
- inhibition at 1 mg/kg ([1]; Mus musculus, po, 384 h, inhibition of lung hydroxyproline content, 1 mg/kg orally twice daily, day 16, read-out: Degree of inhibition): 88.7%
- Histopathological examination, degree of fibrotic change ([2]; Azan-Mallory staining): definite inhibition of pulmonary fibrosis
- inhibition at 1 mg/kg ([2]; Mus musculus, po, 672 h, inhibition of lung hydroxyproline content, read-out: Degree of inhibition): 88.6%

Compound: O=C(Nc1nnn[nH]1)c1cc(Oc2ccccc2)c2ccccn2c1=O [Test compound 2, N-[5-(1H-tetrazolyl)]-1-phenoxy-4H-quinolizin-4-one-3-carboxamide sodium salt monohydrate]
- oral acute toxicity LD50 ([3]; female gender): ≥ 5 g/kg/day
- oral acute toxicity LD50 ([3]; male gender): 4.5 g/kg/day
- inhibition at 1 mg/kg ([4]; 1 mg/kg orally): 38.3%
- inhibition at 10 mg/kg ([4]; 10 mg/kg orally): 68.1%

Compound: COc1ccc(/C=C/C(=O)Nc2ccccc2C(=O)O)cc1OC [Tranilast, reference compound]
- Hydroxyproline content ([1]; 100 mg/kg orally twice daily, n=9): 224.66±18.44 µg/lung
- inhibition at 100 mg/kg ([1]; Mus musculus, po, 384 h, inhibition of lung hydroxyproline content, 100 mg/kg orally twice daily, day 16, read-out: Degree of inhibition): 13.6%

From patent EP0811378A1, “PREVENTIVE/REMEDY FOR INTERSTITIAL PNEUMONIA, INFLAMMATORY INTESTINAL DISEASES OR VASCULAR THICKENING CONTAINING QUINOLIZINONE COMPOUNDS, SALT THEREOF OR HYDRATES THEREFOR” (priority 1995, dated 1996)
